Measured values reported in ChEMBL document CHEMBL1201862, “PubChem BioAssay data set” (2004).
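Five concentrations, 48 hours, 96-well plates. At the GI50, growth is halved.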 The source made the active and inactive calls. No stated cut-off is given here; in the data, active = GI50 up to about 1.1 µM and inactive = higher.

What was measured:
Test in all cases: growth of human tumour cells (NCI), 48 h
[1] = test system: UO-31
[2] = test system: OVCAR-4
[3] = test system: SW-620
[4] = test system: NCI-H522
[5] = test system: SK-OV-3
[6] = test system: SR
[7] = test system: SK-MEL-28
[8] = test system: SF-268
[9] = test system: HCT-15
[10] = test system: MDA-MB-231
[11] = test system: 786-0
[12] = test system: TK-10
[13] = test system: OVCAR-8
[14] = test system: HL-60
[15] = test system: NCI-H460
[16] = test system: HCC 2998
[17] = test system: T47D
[18] = test system: A498
[19] = test system: RXF 393
[20] = test system: SK-MEL-5
[21] = test system: CAKI-1
[22] = test system: IGROV-1
[23] = test system: SNB-75
[24] = test system: SK-MEL-2
[25] = test system: UACC-62
[26] = test system: NCI-H23
[27] = test system: LOX IMVI
[28] = test system: M14
[29] = test system: Hs-578T
[30] = test system: Malme-3M
[31] = test system: SF-295
[32] = test system: COLO 205
[33] = test system: MDA-MB-435
[34] = test system: HCT-116
[35] = test system: NCI-H226
[36] = test system: SNB-19
[37] = test system: RPMI-8226
[38] = test system: A549
[39] = test system: OVCAR-3
[40] = test system: U-251
[41] = test system: DU-145
[42] = test system: MCF7
[43] = test system: EKVX
[44] = test system: CCRF-CEM
[45] = test system: ACHN
[46] = test system: UACC-257
[47] = test system: SN12C
[48] = test system: KM12
[49] = test system: HT-29
[50] = test system: HOP-92
[51] = test system: MOLT-4
[52] = test system: SF-539

Measured: GI50

CC(=O)O[C@H]1C(=O)[C@@]2(C)C(C(OC(=O)c3ccccc3)[C@]3(O)CC(OC(=O)[C@H](OC(=O)CCC(=O)O)C(NC(=O)c4ccccc4)c4ccccc4)C(C)=C1C3(C)C)C1(OC(C)=O)COC1C[C@@H]2OC(=O)CCC(=O)O (some centres undefined)
inactive: [1] 79.1 µM | [2] > 50.6 µM

COc1cc2c(cc1OCCCOc1cc(-c3ccc(F)cc3)nc(C)n1)N=C[C@@H]1CCCN1C2=O
12.6 µM: [9]
inactive: [3] 22.9 µM | [4] 14.6 µM | [5] 25.6 µM | [6] 10.4 µM | [7] 20.7 µM | [8] 17.2 µM | [1] 17.7 µM | [10] 13.8 µM | [11] 16.7 µM | [12] 18.1 µM | [13] 24.5 µM | [14] 24.9 µM | [15] > 100 µM | [16] > 10 µM | [17] 25.8 µM | [18] 12.7 µM | [19] 20.2 µM | [20] 15.9 µM | [2] 33.5 µM | [21] 17.5 µM | [22] 19.2 µM | [23] 19.1 µM | [24] 17.2 µM | [25] 14.5 µM | [26] 15.1 µM | [27] 13.6 µM | [28] 15.5 µM | [29] 24.7 µM | [30] 12.8 µM | [31] 16.4 µM | [32] 29.1 µM | [33] 15.2 µM | [34] 16.9 µM | [35] 15.2 µM | [36] 20.1 µM | [37] 26.1 µM | [38] 18.2 µM | [39] 15.2 µM | [40] 14.8 µM | [41] 9.06 µM | [42] 29.4 µM | [43] 18.9 µM | [44] 15.8 µM | [45] 16.1 µM | [46] 17.3 µM | [47] 16.5 µM | [48] 19.3 µM | [49] 23.1 µM | [50] 27.4 µM | [51] 14.3 µM | [52] 16.6 µM
